Data reported in US8575175B2, “Therapeutic agent for chronic renal failure” (Toray Industries, Inc., priority 2008, dated 2013).
Structures can show the parent of a compound that is named as a salt.

Assays:
[1] = test system: ADP-induced rat platelet aggregation; assay: Platelet aggregation inhibition action in rat (ADP-induced aggregation after oral administration); format: in vivo; details: stimulation with 10 μM ADP; oral: sodium salt of Compound 1 30 mg/kg (blood at 1 hour), beraprost sodium 0.3 mg/kg (0.5 hour); n=6
Description: To determine the dose with which the PGI2-receptor agonistic activity is equivalent between the sodium salt of Compound 1 and beraprost sodium, the platelet aggregation inhibition action which is the major pharmacological action of PGI2-receptor agonists was used as an index for comparison. The sodium salt of Compound 1 (30 mg/kg) or beraprost sodium (0.3 mg/kg) was orally administered to rats fasted for 1 day, and blood was collected therefrom at the time when the plasma level of each compound became maximum, that is, 1 hour after the administration of the sodium salt of Compound 1 (Non-patent Document: J Pharmacol Exp Ther 322:1181-1188 2007) or 0.5 hour after the administration of beraprost sodium (Non-patent Document: Xenobiotic Metabolism and Disposition 6:713-725 1989), followed by measuring ADP-induced rat platelet aggregation. In the both groups, the experiment was carried out with n=6. The sodium salt of Compound 1, which was one of the PGI2-receptor agonists used herein, was synthesized by treating a carboxylic acid with sodium hydroxide, which carboxylic acid was synthesized according to the method described in Patent Document 4.

OAT-3 = assay: Expression level of mRNA of OAT-3 in the renal cortex of rats suffering from chronic renal failure; format: in vivo, WKY rats; details: 6 weeks after induction of nephritis, oral twice a day from week 2, mean ± SE, n=7, normal group 1.00 ± 0.06
Description: (§1) Rabbit anti-rat glomerular basement membrane antiserum (14-fold diluted, 3 mL/kg) was intravenously injected to WKY rats of 8 weeks old, to induce glomerulonephritis. […] Further, creatinine clearance, which is used as an alternative to glomerular filtration rate (GFR), was 2.63±0.07 mL/min. (N=3) in the normal group, and 1.22±0.04 mL/min. (N=21) in the nephritis-induced group. That is, creatinine clearance in the nephritis-induced group decreased to not more than 50% with respect to that of the normal group, and therefore it was confirmed that the nephritis-induced group developed chronic renal failure whose primary disease was glomerulonephritis. Thus, the time of establishment of the chronic renal failure was defined as 2 weeks after the induction of nephritis. […]
(§2) From 2 weeks after the induction of nephritis when the chronic renal failure was established, until 6 weeks after the induction of nephritis, urine collection and blood collection were carried out as appropriate, and the serum creatinine value, BUN and creatinine clearance were measured for each group to evaluate renal function. Further, the hematocrit, the hemoglobin content, and the SOD activity of the renal tissue, which are closely linked to the diseased state of chronic renal failure, were measured, and the expression level of mRNA of an organic anion transporter OAT-3 was quantified. […]

[2] = after oral administration to rats; from cited literature; cited from earlier work
SOD = SOD activity in the renal tissue of rats suffering from chronic renal failure; format: in vivo, WKY rats; details: 6 weeks after induction of nephritis, oral twice a day from week 2, mean ± SE, n=7
Description: as §1, §2

[3] = test system: rats suffering from chronic renal failure; assay: Pharmacological effect in rats suffering from chronic renal failure: renal function, hematocrit, hemoglobin; format: in vivo, WKY rats; details: for Hematocrit value / Hemoglobin content: oral twice a day from week 2
Description: Rabbit anti-rat glomerular basement membrane antiserum (14-fold diluted, 3 mL/kg) was intravenously injected to WKY rats of 8 weeks old, to induce glomerulonephritis. […] Further, creatinine clearance, which is used as an alternative to glomerular filtration rate (GFR), was 2.63±0.07 mL/min. (N=3) in the normal group, and 1.22±0.04 mL/min. (N=21) in the nephritis-induced group. That is, creatinine clearance in the nephritis-induced group decreased to not more than 50% with respect to that of the normal group, and therefore it was confirmed that the nephritis-induced group developed chronic renal failure whose primary disease was glomerulonephritis. Thus, the time of establishment of the chronic renal failure was defined as 2 weeks after the induction of nephritis. […] This stage was the phase in which introduction of dialysis is considered in human, and corresponded to the most serious phase in chronic renal failure in the conservative stage.
Thus, 2 weeks after the induction of nephritis, based on the serum creatinine value, the rats suffering from chronic renal failure were grouped into the normal group (with neither induction of nephritis nor administration, n=4), the control group (administration of only a vehicle, n=7), the group to be treated with the sodium salt of Compound 1 (administration of 30 mg/kg twice a day, n=7) and the group to be treated with beraprost sodium (administration of 0.3 mg/kg twice a day, n=7), after which oral administration of the drugs were begun, followed by daily administration thereof. As the vehicle for the drugs, 0.25% sodium carboxymethylcellulose solution was used.
From 2 weeks after the induction of nephritis when the chronic renal failure was established, until 6 weeks after the induction of nephritis, urine collection and blood collection were carried out as appropriate, and the serum creatinine value, BUN and creatinine clearance were measured for each group to evaluate renal function. Further, the hematocrit, the hemoglobin content, and the SOD activity of the renal tissue, which are closely linked to the diseased state of chronic renal failure, were measured, and the expression level of mRNA of an organic anion transporter OAT-3 was quantified. The SOD activity was measured with the SOD assay kit WST (Dojindo Laboratories), and the expression level of mRNA of OAT-3 was quantified using LightCycler FastStart DNA Master SYBR Green I (Roche).
Six weeks after the induction of nephritis when the chronic renal failure in the conservative stage progressed to a serious phase in the control group, a statistical analysis was carried out. In terms of statistical difference, homoscedasticity was tested by the Bartlett's test between the control group and the respective drug-administered groups. In homoscedastic cases, the parametric Dunnett's test was carried out between the respective drug-administered groups and the control group, while in heteroscedastic cases, the nonparametric Dunnett's test was carried out therebetween, using a significance level of less than 5%.

[4] = Plasma level of Compound 1 and bioavailability after administration of Compound 1 and Compound 2 to rats; format: in vivo; details: rat, 5 mg/kg oral vs Compound 1 1 mg/kg intravenous, Compound 1 measured in plasma, corrected for molecular weight, mean ± SE, n=3
Description: Compound 1 or Compound 2 was orally administered to rats in an amount of 5 mg/kg, and Compound 1 was intravenously administered in an amount of 1 mg/kg, after which the concentration of Compound 1 in plasma was measured. The experiment was carried out with n=3 in each of the both groups. […] Thus, it was shown that Compound 2 can be used in a manner similar to Compound 1. Compound 1 and Compound 2 used in this experiment was synthesized in accordance with the method described in Patent Document 4.

[5] = 6 weeks after induction of nephritis, oral twice a day from week 2 (Compound 1 Na salt 30 mg/kg, beraprost sodium 0.3 mg/kg), mean ± SE, n=7
[6] = 6 weeks after induction of nephritis, mean ± SE, n=7
[7] = until 6 weeks after the induction of nephritis, 30 mg/kg oral twice a day

bioavailability [4] [%]	SMILES	rate of suppression of rat platelet aggregation [1] [%]	Expression level of mRNA of OAT-3 (ratio to that of GAPD) (OAT-3)	time when the plasma level became maximum [2] [h]	SOD activity (%, taking the activity in the normal group as 100%) (SOD) [%]	Creatinine clearance ([3]; 2 weeks after induction of nephritis, at the beginning of the administration (baseline of the treated group)) [mL/min]	BUN [3, 5] [mg/dL]	Creatinine clearance [3, 5] [mL/min]	Serum creatinine value [3, 5] [mg/dL]	Creatinine clearance ([3]; 6 weeks after induction of nephritis, oral twice a day from week 2 (Compound 1 Na salt 30 mg/kg, beraprost sodium 0.3 mg/kg), mean ± SE, n=7, listed as sodium salt of Compound 1) [mL/min]	Hematocrit value [3, 6] [%]	Hemoglobin content [3, 6] [g/dL]	BUN, course compared to control group (FIG. 2) [3, 7]	creatinine clearance, course compared to control group (FIG. 3) [3, 7]	serum creatinine value, course compared to control group (FIG. 1) [3, 7]
–	CC(C)N(CCCCOCC(=O)O)c1cnc(-c2ccccc2)c(-c2ccccc2)n1 [Sodium salt of Compound 1]	47.0±7.9	0.42 ± 0.05	1	83.6 ± 2.52	1.21 ± 0.06	26.8 ± 2.49	1.48 ± 0.11	0.47 ± 0.04	1.48 ± 0.11	37.1 ± 0.71	13.7 ± 0.28	kept low compared to that in the control group	kept high compared to that in the control group	kept low compared to that in the control group
–	CC#CCC(C)[C@H](O)/C=C/[C@@H]1[C@H]2c3cccc(CCCC(=O)O)c3O[C@H]2C[C@H]1O (mixture of isomers) [Beraprost sodium, reference compound]	64.2±8.3	0.24 ± 0.04	0.5	67.9 ± 5.45	–	42.1 ± 6.41	0.77 ± 0.13	0.85 ± 0.12	–	33.9 ± 0.97	12.3 ± 0.28	–	–	–
43.3 ± 2.6	CC(C)N(CCCCOCC(=O)O)c1cnc(-c2ccccc2)c(-c2ccccc2)n1 [Compound 1]	–	–	–	–	–	–	–	–	–	–	–	–	–	–
